Legend:
Septoria tritici = test: In vivo test on Septoria tritici (septoria disease of wheat); conditions: dose of 500 g/ha; wheat plants (Scipion variety) sprayed 24 hours before contamination; grading 15 to 20 days after contamination vs control plants
Method: In Vivo Test on Septoria Tritici (Septoria Disease of Wheat) […] Wheat plants (Scipion variety) in starter cups, sown on a 50/50 peat soil-pozzolana substrate and grown at 12° C., are treated at the 1-leaf stage (10 cm tall) by spraying with the aqueous suspension described above. Plants, used as controls, are treated with an aqueous solution not containing the active material. After 24 hours, the plants are contaminated by spraying them with an aqueous suspension of Septoria tritici spores (500,000 spores per mL). The spores are collected from a 15-day-old culture and are suspended in a nutrient solution composed of: • 1.5 g/L of gelatin • 0.5 g/L of sodium oleate • 24 g/L of PDB The contaminated wheat plants are incubated for 72 hours at about 20° C. and at 100% relative humidity, and then for 15 days at 80% relative humidity. Grading is carried out 15 to 20 days after the contamination, in comparison with the control plants.

[1] = system: Erisyphe graminis f. sp. tritici; test: In vivo test on Erisyphe graminis f. sp. tritici (powdery mildew of wheat); conditions: dose of 500 g/ha; wheat plants (Audace variety) sprayed 24 hours before contamination; grading 7 to 14 days after contamination vs control plants
Method: In Vivo Test on […] Graminis f. Sp. Tritici (Powdery Mildew of Wheat) […] Wheat plants (Audace variety) in starter cups, sown on 50/50 peat soil-pozzulana substrate and grown at 12° C., are treated at the 1-leaf stage (10 cm tall) by spraying with the aqueous suspension described above. Plants, used as controls, are treated with an aqueous solution not containing the active material. After 24 hours, the plants are contaminated by dusting them with […] graminis f. sp. tritici spores, the dusting being carried out using diseased plants. Grading is carried out 7 to 14 days after the contamination, in comparison with the control plants.

Nc1ccnc(C(=O)Nc2ccc(Oc3ccc(C(F)(F)F)cc3)cc2)c1O [Compound 108, 4-amino-3-hydroxy-N-para-[4-(trifluoromethyl)phenoxy]phenylpicolinamide]
good (at least 50%) protection (Septoria tritici): at least 50%
good (at least 50%) or total protection [1]: at least 50%

From US8003799B2, “Picolinic acid derivatives and their use as fungicides” (Bayer SAS, priority 2000, dated 2011)
